# Experimental data reported in PubChem BioAssay (NCI).
# Several values for one entry are separate records, joined by “and”; a condition that tells them apart may be missing. Identical values can stand only once.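 The compound was tested at five concentrations on cells cultured in 96-well plates, with a 48-hour exposure period. Here, GI50 denotes the concentration required for 50% inhibition of growth. TGI is the concentration that stops growth completely.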
# What was measured:
# Assay in all cases: NCI anticancer screen, dose series, 48 h
# NCI/ADR-RES ovarian = system: NCI/ADR-RES ovarian
# IGROV1 ovarian = system: IGROV1 ovarian
# SN12C renal = system: SN12C renal
# HL-60(TB) leukemia = system: HL-60(TB) leukemia
# A498 renal = system: A498 renal
# COLO 205 colon = system: COLO 205 colon
# NCI-H460 lung = system: NCI-H460 lung
# HCC-2998 colon = system: HCC-2998 colon
# UACC-62 melanoma = system: UACC-62 melanoma
# NCI-H226 lung = system: NCI-H226 lung
Structure (SMILES),GI50 (NCI/ADR-RES ovarian) [µM],TGI (NCI/ADR-RES ovarian) [µM],GI50 (IGROV1 ovarian) [µM],TGI (IGROV1 ovarian) [µM],GI50 (SN12C renal) [µM],TGI (SN12C renal) [µM],GI50 (HL-60(TB) leukemia) [µM],TGI (HL-60(TB) leukemia),GI50 (A498 renal) [µM],TGI (A498 renal) [µM],GI50 (COLO 205 colon) [µM],TGI (COLO 205 colon),GI50 (NCI-H460 lung) [µM],TGI (NCI-H460 lung) [µM],GI50 (HCC-2998 colon) [µM],TGI (HCC-2998 colon) [µM],GI50 (UACC-62 melanoma) [µM],TGI (UACC-62 melanoma) [µM],GI50 (NCI-H226 lung) [µM],TGI (NCI-H226 lung) [µM]
Cc1cccc2c(N)c3ccccc3nc12,1.32,12.8,2.18,9.67,1.16,12.7,2.41,10.3 µM,0.604,2.28,0.463,2.31 µM,0.523,10.5,1.24,4.35,1.56,4.6,1.44,6.19
Cc1nc(Nc2nc3ccccc3o2)nc(-c2cccc([N+](=O)[O-])c2)c1C(=O)Nc1ccc(F)c(Cl)c1,2.33,10.5,2.94,> 100,2.64,20.1,2.15,5.29 µM,0.853,3.5,1.78,3.4 µM,1.43,17.7,3.26,> 100,2.29,> 100,3.05,> 100
CC(=O)Oc1ccc(C(c2ccc(OC(C)=O)cc2)c2ccccn2)cc1,0.908,> 100,19.9,> 100,0.558,> 100,25.4,70 µM and 69.7 µM,8.9,> 100,0.463,36.5 µM and > 69.4 µM,> 78.5,> 100,11.3,> 100,21.2,> 100,40.2,> 100
CNC(=O)OCC1C2=C(C(=O)C(C)=C(N)C2=O)N2CC3C(N3C)C12OC (centres undefined),,> 100,,26.1,,> 100,,21.1 µM,,34.2,,31.7 µM,,10,,24.8,,22.2,,> 100
O=C1OC(c2ccccc2)=N/C1=C\c1cccc(F)c1,,69.9,,> 100,,> 100,,61.2 µM,,> 100,,> 100 µM,,> 100,,> 100,,> 100,,92.8
Cn1cnc([N+](=O)[O-])c1Sc1ncn[nH]1,> 100,> 100,40.7,> 100,> 100,> 100,75.5,> 100 µM,> 100,> 100,28.4,> 100 µM,> 100,> 100,> 100,> 100,96.3,> 100,> 100,> 100
COc1ccc(OC)c(Nc2nc(-c3c(C)nc4sccn34)cs2)c1,15,> 100,23.2,> 100,> 100,> 100,> 100,> 100 µM,1.63,> 100,> 100,> 100 µM,> 100,> 100,> 100,> 100,51.8,> 100,19.2,> 100
Cc1cc2c(cc1N)C(C)C1(CCC(=O)N2Cc2ccccc2)OCCO1 (centres undefined),,> 100,,> 100,,> 100,,,,> 100,,,,> 100,,> 100,,> 100,,> 100
COC(=O)[C@@H](C)C[C@H](Cc1ccccc1)NC(=O)c1csc([C@@H](C[C@H](C(C)C)N(C)C(=O)[C@H](C)NC(=O)[C@H]2CCCCN2C)OC(C)=O)n1,> 25,> 25,1.14,> 25,2.08,> 25,,,1.87,14.1,1.12,20.2 µM,1.18,> 25,1.75,> 25,1.27,> 25,> 25,> 25
O=C1CC(c2ccc(Cl)cc2)Oc2ccccc21 (centres undefined),,50.6,,40.8,,,,34.1 µM,,73,,89.1 µM,,45.3,,55,,49.8,,33.6
COc1ccc(C2=CC(c3ccc(OC)c(OC)c3)c3c(c4ccccc4oc3=O)O2)cc1OC (centres undefined),0.545,,2.47,> 31.2,4.39,> 100,2.32,,0.892,> 20.2,2.04,> 24.2 µM,1.9,> 100,1.37,4.97,0.473,> 100,> 21.1,> 100
C=C1[C@@H]([C@@]2(C)C=CC(=O)C(C)(C)[C@@H]2CC(=O)OC)CC[C@@]2(C)C(c3ccoc3)OC(=O)[C@H]3O[C@]132 (some centres undefined),,> 100,,> 100,,> 100,,> 100 µM,,> 100,,> 100 µM,,> 100,,> 100,,> 100,,> 100
Clc1nc(Cl)c2ncn(Cc3ccc(Cn4cnc5c(Cl)nc(Cl)nc54)cc3)c2n1,7.64,28.8,6.08,20.6,12.1,32.4,0.0475,4.4 µM,7.48,50.2,> 100,> 100 µM,4.75,22.2,11,24,12.5,27.8,11.2,51.6
Cn1c(=O)c(Oc2ccc(F)cc2F)cc2cnc(NCCS(C)(=O)=O)nc21,> 25,> 25,> 25,> 25,> 25,> 25,> 25,> 25 µM,> 25,> 25,> 25,> 25 µM,> 25,> 25,> 25,> 25,> 25,> 25,> 25,> 25
CCn1c2ccccc2c2cc(C(O)c3cccc4ncccc34)ccc21 (centres undefined),0.0396,13.7,0.174,> 100,0.0591,6.24,0.0279,0.0787 µM,0.0251,0.267,0.0427,0.251 µM,0.0388,4.61,0.257,15.7,0.0443,2.32,0.831,46.8
COc1cc(/C=C/C(=O)c2cccnc2Nc2ccc(F)cc2)cc(OC)c1OC,2.37,8.14,7.42,50.3,3.23,> 100,2.4,7.15 µM,2.18,8.28,2.64,5.53 µM,2.83,10.1,1.78,3.45,2.35,6.58,1.79,3.78

Structure (SMILES),GI50 (NCI/ADR-RES ovarian) [µM],TGI (NCI/ADR-RES ovarian) [µM],GI50 (IGROV1 ovarian) [µM],TGI (IGROV1 ovarian) [µM],GI50 (SN12C renal) [µM],TGI (SN12C renal) [µM],GI50 (HL-60(TB) leukemia) [µM],TGI (HL-60(TB) leukemia),GI50 (A498 renal) [µM],TGI (A498 renal) [µM],GI50 (COLO 205 colon) [µM],TGI (COLO 205 colon),GI50 (NCI-H460 lung) [µM],TGI (NCI-H460 lung) [µM],GI50 (HCC-2998 colon) [µM],TGI (HCC-2998 colon) [µM],GI50 (UACC-62 melanoma) [µM],TGI (UACC-62 melanoma) [µM],GI50 (NCI-H226 lung) [µM],TGI (NCI-H226 lung) [µM]
Cc1cc(OCc2nnc3n2N=C(c2ccc(Cl)cc2Cl)CS3)ccc1Cl,51.8,> 100,52.3,> 100,38.7,> 100,45.9,> 100 µM,,,60.2,> 100 µM,62.8,> 100,68.6,> 100,34.4,> 100,43.6,> 100
CC(C)CCN[C@@H]1CCc2cc(O)c(N3CC(=O)NS3(=O)=O)c(F)c2C1,> 100,> 100,> 100,> 100,> 100,> 100,> 100,> 100 µM,> 100,> 100,> 100,> 100 µM,> 100,> 100,> 100,> 100,,,> 100,> 100
O=C(O)/C=C/C(=O)N1C/C(=C\c2ccccc2)C(=O)/C(=C/c2ccccc2)C1,,61.7,,31.9,,15.5,,26.6 µM,,34.5,,24.3 µM,,30.8,,13.1,,8.7,,31.3
CCCNc1nc2ccccc2c2c1S(=O)(=O)c1ccc(Cl)cc1C2=O,1.37,> 50,1.46,> 50,0.648,3.24,1.49,> 50 µM,1.51,16.8,2.1,> 50 µM,1.3,4.47,1.62,34.4,1.28,> 50,1.51,> 50
COc1cc2c3c(n(CCCN=[N+]=[N-])c(=O)c2cc1OC)-c1ccc(N(C)C)cc1C3=O,> 100,> 100,> 100,> 100,> 100,> 100,> 100,> 100 µM,,,> 100,> 100 µM,> 100,> 100,> 100,> 100,> 100,> 100,> 100,> 100
C=CS(=O)(=O)CCN1CC1,,> 10,,> 10,,> 10,,> 10 µM,,,,> 10 µM,,,,> 10,,> 10,,
COc1ccc(Nc2c3ccccc3nc3[nH]c4ccccc4c23)cc1,18.9,> 50,16.9,> 50,18.5,> 50,4.98,> 50 µM,,,17.8,> 50 µM,2.28,> 50,,,16.2,> 50,7.65,> 50
c1ccc(CNc2nc(Nc3ccccc3)nc3ccccc23)cc1,1.99,5,2.59,7.44,1.73,3.7,,,1.29,5.7,1.89,3.77 µM,,,1.99,4.43,1.48,2.95,2.26,11.6
NCCSCCc1ccccc1,,> 100,,> 100,,> 100,,,,> 100,,> 100 µM,,> 100,,> 100,,> 100,,> 100
O=C(Nc1ccc(Cl)c(Cl)c1)OCCN1c2ccccc2Sc2ccccc21,,> 10,,> 10,,> 10,,> 10 µM,,,,> 10 µM,,,,> 10,,> 10,,
CC(Br)C(=O)Nc1ccc(C(=O)O)c(O)c1 (centres undefined),,> 100,,> 100,,66.1,,> 100 µM,,> 100,,> 100 µM,,> 100,,,,> 100,,> 100
O=C1C=CC(O)C2C1CC13SSC4(CC5C(=O)C=CC(O)C5N4C1=O)C(=O)N23 (centres undefined),,0.093,,3.43,,0.743,,,,6.26,,1.04 µM,,> 34.2,,,,0.622,,1.19
ClCc1ccc(Cn2cnc3c(Cl)nc(Cl)nc32)cc1,16.5,> 100,15.3,30.4,7.18,20.8,,,12.1,25.1,3.45,> 100 µM,2.39,4.92,10.3,24,2.06,4.4,3.55,9.63
CSc1cccc(NC(=O)OC2CCCCCCCCCCC2)c1,,64.5,,> 100,,33.2,,35.1 µM,,62.3,,28.3 µM,,35.2,,,,52.7,,61.7
Cc1ccc(-c2nc(N3CCCNCC3)c3oc(-c4ccc(C)cc4)nc3n2)cc1,1.96,3.74,1.62,3.19,1.61,3.06,0.179,0.371 µM,15.8,31.7,1.89,3.55 µM,1.89,3.43,32.3,> 100,1.67,3.08,,
